Columns and labels:
NBT II cells [1] = test: In vitro wound assay (migration of NBT II cells); assay type: cell-based, rat
Protocol: FIGS. 1A and 1B show the migration of epithelial NBT II cells under varying conditions. […] Twenty-four hours after plating, the confluent cell monolayer was scratched as described in the Examples. EGF (100 ng/mL) or Ultroser G (2%) were added. Wound closure was documented by photography. The calibration bar indicates 80 pn. Migration Assays-For in vitro wound assays, NBT II cells were plated at a density of 7×10^4 cells/cm^2. After 24 hours the confluent monolayer was scratched with a pipette tip to create a cell free area, growth factors were added, and wound closure was documented by photography. For scatter assays, cells were plated at a cell density of 1×10^4 cells/cm^2. Growth factors were added after 24 hours, and the morphology of cells and the dispersion of small colonies were documented by photography. Quantification of migration was performed by counting single cells with fibroblastoid migration morphology compared to cells in groups with epithelial morphology in different, randomly chosen microscopic fields. 1000 cells per dish were counted. All migration assays were performed in triplicate. Tyrosine kinases (TK), mitogen-activated protein kinase (MAPK) or phosphatidylinositol-3-kinase (Pl3K), were inhibited by Genistein (250 μM; Biomol), added one hour before addition of the growth factors. As a control, the solvent DMSO was used. DNA synthesis was inhibited by the specific inhibitor of DNA polymerase, α Aphidicolin (1.5 μM; Serva) 1 hour before adding the growth factors. Migration of epithelial cells in tissue culture represents in many aspects a model system of the epithelial-mesenchymal transition ([…], et al. (1994) Int. Rev. Cytol. 155, 49-9). The rat bladder carcinoma cell line NBT II (Toyoshima, et al. (1971) J. Nat. Cancer Inst. 47, 979-985) was used, since certain growth factors and components of the extracellular matrix (ECM) induce migration of these cells (Valles, et al. (1990) Proc. Natl. Acad. Sci. USA 87, 1124-1128; Tchao, R. (1982) Cell Motil. 4, 333-341; Tucker, et al. (1990) Cancer Res. 50, 129-137).

[2] = system: β-catenin and plakoglobin; test: Tyrosine phosphorylation of β-catenin and plakoglobin in migrating NBT II cells (immunoprecipitation, Western blot); assay type: cell-based, rat; conditions: pretreatment with 1 mM Na-orthovanadate
Protocol: NBT II cells were plated at a density of 1×10^4 cells/cm^2. Twenty-four hours later growth factors were added to induce migration (EGF: 100 ng/mL; aFGF: 30 ng/mL including 50 μg/mL heparin; Ultroser G: 2%). Ninety minutes before lysis, Na-orthovanadate (1 mM) was added (right) or not (left). As a positive control, cells were treated for 10 minutes with pervanadate. After lysis the cadherin/catenin complex was immunoprecipitated and precipitates were separated by SDS-PAGE. Tyrosine phosphorylation levels were analyzed by Western blotting with an anti-phosphotyrosine antibody (top). The membranes were reprobed with specific antibodies to E-cadherin (middle) or the catenins (bottom) to assure equal amounts of precipitated proteins. Highly tyrosine phosphorylated β-catenin (as hereafter pervanadate treatment) was not efficiently immunodecorated in the reblot. Arrows indicate the proteins of interest. Molecular mass standards in kilodaltons are shown on the left.
Transient Expression, Cell Lysis, and Immunoprecipitation—Transient transfection of human 293 embryonic kidney cells was performed as described (Chen, et al. (1987) Mol. Cell. Biol. 7, 2745-2752, hereby incorporated herein by reference in its entirety, including any drawings, figures, or tables). For biochemical analysis, NBT II cells were plated at a density of 1×10^4 cells/cm^2 at the day before lysis. […]

[3] = system: free, uncomplexed β-catenin; test: Affinity precipitation of free β-catenin with GST-E-cadherin cytoplasmic fusion protein; assay type: cell-based, rat; conditions: EGF 100 ng/mL
Protocol: NBT II cells were plated at a density of 1×10^4 cells/cm^2. Twenty-four hours later EGF (100 ng/mL) was added for the indicated time intervals. 30 minutes before lysis Na-orthovanadate (1 mM) was added. Subsequently affinity precipitations were performed with 5 μg of a GST/E-cadherin cytoplasmic protein or GST in a three-fold molar excess. Proteins were separated by SDS-PAGE, and the levels of free, uncomplexed β-catenin were analyzed by Western blotting with an anti-β-catenin-antibody (top). […] Note that in comparison to FIG. 2, cells were pretreated for only 30 minutes with Na-orthovanadate. Arrows indicate the proteins of interest. Molecular mass standards in kilodaltons are shown on the left.
NBT II cells infected with the empty vector pLXSN (left) or human PTP LAR (right) were plated at 1×10^4 cells/cm^2 and stimulated after 24 h with EGF (100 ng/mL) for the indicated time intervals. Na-orthovanadate pretreatment was omitted to avoid irreversible inhibition of protein tyrosine phosphatase activity. Cells were lysed and in vitro associations were performed with 5 μg of the GST-E-cadherin cytoplasmic protein or GST in a three-fold molar excess. Proteins were separated by SDS-PAGE, and the levels of free, uncomplexed β-catenin were analyzed by Western blotting with an anti-β-catenin antibody (top). […] Arrows indicate the proteins of interest. […]

NBT II cells [4] = test: Scatter assay of NBT II cells after EGF treatment; assay type: cell-based, rat; conditions: ectopic expression, about twice the PTP LAR expression of parental cells; EGF 100 ng/mL
Protocol: FIGS. 7A and 7B show a scatter assay of NBT II pLXSN and NBT II hPTP LAR cells. In FIG. 7A, NBT II cells infected with the empty vector pLXSN (left) or human PTP LAR (right) were plated at 1×10^4 cells/cm^2 and stimulated 24 h later with EGF (100 ng/mL) as indicated. After 7 h, the migration morphology was documented by photography.
To this end, 1000 cells per dish from randomly chosen microscopic fields were counted; assays were performed in triplicate. A cell was judged as a migrating cell when it had changed from a cobblestone-like, epithelial morphology to a migrating, fibroblastoid phenotype.
Migration Assays—For in vitro wound assays, NBT II cells were plated at a density of 7×10^4 cells/cm^2. After 24 hours the confluent monolayer was scratched with a pipette tip to create a cell free area, growth factors were added, and wound closure was documented by photography. For scatter assays, cells were plated at a cell density of 1×10^4 cells/cm^2. Growth factors were added after 24 hours, and the morphology of cells and the dispersion of small colonies were documented by photography. Quantification of migration was performed by counting single cells with fibroblastoid migration morphology compared to cells in groups with epithelial morphology in different, randomly chosen microscopic fields. 1000 cells per dish were counted. All migration assays were performed in triplicate. […]

NBT II cells [5] = test: DNA-synthesis and proliferation rate of NBT II-hPTP LAR cell lines; assay type: cell-based, rat; conditions: ectopic expression in NBT II cells
NBT II cells [6] = test: Tumor formation in nude mice; assay type: in vivo, Swiss nude mice; conditions: NBT II hPTP LAR cells injected subcutaneously into flank, 2×10^6/50 μL
Protocol: NBT II cells, infected with the empty vector pLXSN (filled triangle) or human PTP LAR (filled square), were injected (2×10^6/50 μL) subcutaneously into the flank region of Swiss nude mice. Tumor formation was monitored.
Tumor formation in Nude Mice—NBT II cells were resuspended at a cell density of 2×10^6/50 μL in MEM and injected subcutaneously into the flank region of Swiss nude mice (IGR Villejuif, Paris, France). Tumor formation was monitored by measuring the width (W) and length (L) of the tumors with W<L. The tumor volume was calculated according to the formula (W^2×L×π/6). Assays were performed at least in triplicate.

[7] = inhibition of PI3K or MAPK, concentration not given

Q: Which “effect on cell migration (wound closure)” value (NBT II cells [1]; Aphidicolin 1.5 μM, added 1 hour before the growth factors, inhibition of DNA-synthesis) does the source give for `C[C@@]1(CO)[C@H](O)CC[C@@]2(C)[C@H]1CC[C@H]1C[C@@H]3C[C@@]12CC[C@]3(O)CO` [Aphidicolin] here?
A: did not interfere with migration

Q: `O=c1c(-c2ccc(O)cc2)coc2cc(O)cc(O)c12` [Genistein] was tested. Which “effect on cell migration (wound closure)” value (NBT II cells [1]; Genistein 250 μM, added one hour before the growth factors, inhibition of tyrosine kinases) did it give?
A: completely abolished cell migration

Q: For `[Na+].[Na+].[Na+].[O]=[V]([O-])([O-])[O-]` [Na-orthovanadate], which “tyrosine phosphorylation of β-catenin and plakoglobin” value [2] is on record?
A: increased tyrosine phosphorylation

Q: `COc1cccc(-c2cc(=O)c3ccccc3o2)c1N` [PD98059] was tested. Which “effect on cell migration (wound closure)” value (NBT II cells [1]; [7]) did it give?
A: completely abolished cell migration

Q: For `O=c1cc(N2CCOCC2)oc2c(-c3ccccc3)cccc12` [ly295002], which “effect on cell migration (wound closure)” value (NBT II cells [1]; [7]) is on record?
A: completely abolished cell migration

Q: “EGF: growth factor used to induce epithelial cell migration [reference compound]” was tested. Which “free pool of β-catenin” value ([3]; NBT II cells) did it give?
A: increase of the free pool of β-catenin

Q: How did the “EMT and motility relative to vector-control infected cell lines (NBT II pLXSN)” value (NBT II cells [4]) turn out when “hPTP LAR: full-length human PTP LAR ectopically expressed in NBT II cells by retroviral gene transfer (pLXSN)” was run?
A: about 40%

Q: What about the “DNA-synthesis and proliferation rate” value (NBT II cells [5]) of the same molecule?
A: not affected

Q: What about the “tumor growth in comparison to NBT II pLXSN cells” value (NBT II cells [6]) of the same molecule?
A: significantly reduced tumor growth

Q: What about the “tyrosine phosphorylation and increase of the free pool of β-catenin” value ([3]; NBT II-hPTP LAR-expressing cells, no Na-orthovanadate) of the same molecule?
A: neither tyrosine phosphorylation, nor an increase in the free pool of β-catenin were detectable
